Test results as given in patent publication US11020481B2 (priority 2008, dated 2021).

Tests used:
IL-6 [1] = test: IL-6 production in TNFα-induced NL20 cells (ELISA); format: cell-based, human
Description: (§1) Am J Physiol Lung Cell Mol Physiol 2007; 292:[…]-352; and Donnarumma G, et al. Anti-inflammatory effects of moxifloxacin and human beta-defensin 2 association in human lung epithelial cell line (A549) stimulated with lipopolysaccharide. Peptides 2007; 28:2286-2292, incorporated by reference in their entireties). […] The effect of antibiotics on cytokine levels was assessed by ELISA assay. […] The day after seeding, cells received normal growth medium without serum for an additional 24 h. […] IL-6 and IL-8 production in NL20 monolayers was induced by treatment with 10 ng/ml of TNFα. […] After 48 h, cell medium was collected, clarified and the amount of IL-6 and IL-8 released into the medium was quantified using QuantiGlo chemiluminescent ELISA kits (R&D Systems, Minneapolis, Minn.). To test the effect of antibiotics on IL-6 and IL-8 secretion, antibiotics were added to culture media along with LPS or TNF-α and processed as described above.

[2] = tested on: IL-8, IL-6, ERK1/2, MK, and NFKB; details: human lung epithelia cells; antibiotic concentrations less than 50 μg/ml; cited from earlier work
IL-8 [3] = test: IL-8 production in TNFα-induced NL20 cells (ELISA); format: cell-based, human; details: for levels of IL-8 decreased: p<0.005
Description: as §1

IL-6 [4] = test: IL-6 production in LPS-induced HBE135 cells (ELISA); format: cell-based, human; details: for decrease in IL-6 levels: Example 5, 5 μg/ml LPS
Description: as §1

IL-8 [5] = test: IL-8 production in LPS-induced HBE135 cells (ELISA); format: cell-based, human
Description: as §1

NL20 cells = tested on: NL20 cells
Description: (§2) After 48 hour incubation with the antibiotic, cells were incubated in fresh growth media containing 5% Alamar Blue dye and fluorescence was recorded at 0 h and 4 h to assess antibiotic cytotoxicity.

HBE135 cells = test: Cytotoxicity on HBE135 cells, Alamar Blue assay; format: cell-based, human; details: for changes in cell viability in cytotoxicity assays: Example 5, LPS-induced HBE135 cells, 10-300 μg/ml, data not shown
Description: as §2

IL-1β = IL-1β production in LPS-stimulated THP-1 cells (ELISA); format: cell-based, human; details: 24 h
Description: The human monocyte cell line, THP-1 is an established in vitro model of human monocytic cells and is capable to secrete a greater variety of cytokines compared to NL20 and HBE135 cells. THP-1 cells were cultured in RPMI-1640 medium with 10% FBS, 0.05 mM 2-mecraptoethanol. THP-1 cells were seeded on 24-well tissue culture plates at 1×10^6 cells/ml in growth media without serum. The following day, 100 ng/ml LPS from P. aeruginosa and antibiotics were added and cells incubated for 24 hours before media collection to assess cytokine production. Quantification of IL-6, IL-8, IL-1β and TNFα production was performed as described above for NL20 cells.

IL-8 mRNA = IL-8 mRNA expression in TNFα-induced NL20 cells (real-time PCR); format: cell-based, human; details: NL20 monolayers, 10 ng/ml TNFα, 24 h; 100 μg/ml and 300 μg/ml
Description: IL-8 mRNA expression in NL20 monolayers was induced by treatment with 10 ng/ml TNFα. Levofloxacin was added simultaneously with TNFα. After 24 h incubation, the cell monolayer was washed with PBS, total cellular RNA was prepared and reverse transcription was performed using a human IL-8 specific primer and the “Cells-to-cDNA” kit from Ambion (Austin, Tex.). cDNA was subjected to real-time PCR analysis using PowerSYBR Green PCR master mix and a GeneAmp 5700 Instrument (Applied Biosystems; Warrington, UK). All data were normalized to the housekeeping gene β-actin. […] This increase correlates with the increased levels of IL-8 protein induced by TNFα.

IL-6 [6] = test: IL-6 levels in BAL of LPS-injected mice after aerosol treatment; format: in vivo; details: LPS i.p., aerosol 60 mg/kg, BAL at 6 hours
Description: (§3) Mice (n=4) were injected with 50 μg LPS by an intraperitoneal route. […] Mice were sacrificed 6 hours after aerosolized treatment, and bronchoalveolar (BAL) fluid was collected by lavage with 1 ml saline. IL-6 and MIP-2 (murine homolog of human IL-8) levels were determined by ELISA.

MIP-2 = MIP-2 levels in BAL of LPS-injected mice after aerosol treatment; format: in vivo; details: 50 μg LPS i.p., aerosol 60 mg/kg 30 min after LPS, BAL 6 hours after treatment
Description: as §3

[7] = Example 3, NL20 cells induced with TNFα, 300 μg/ml
[8] = summary of Example 5, cultured human lung epithelial cell lines (line not given), 300 μg/ml, p<0.05
[9] = Example 5, NL20 cells, TNFα, 300 μg/ml
[10] = Example 5, NL20 cells, TNFα, 10 μg/ml to 100 μg/ml
[11] = summary of Example 5, cultured human lung epithelial cell lines (line not given)

Structure (SMILES): O=C(O)c1cn(C2CC2)c2cc(N3CCNCC3)c(F)cc2c1=O [ciprofloxacin]
- change in IL-6 levels (IL-6 [1]; Example 1, NL20 cells, 10 ng/ml TNFα, 48 h, 10 μg/ml and 30 μg/ml antibiotic): No significant change
- IL-6 levels (IL-6 [1]; Example 1, NL20 cells, TNFα, 30 μg/ml): increase

Structure (SMILES): Cc1c(F)c(N2CCNC(C)C2)cc2c1c(=O)c(C(=O)O)cn2C1CC1 (centres unmarked) [grepafloxacin]
- secretion of pro-inflammatory factor such as IL-8, IL-6, ERK1/2, MK, and NFKB [2]: can inhibit

Structure (SMILES): C[C@H]1COc2c(N3CCN(C)CC3)c(F)cc3c(=O)c(C(=O)O)cn1c23 [levofloxacin]
- reduction in IL-6 levels (IL-6 [1]; [7]): ~10 fold
- reduction in IL-6 levels (IL-6 [1]; Example 5, NL20 cells, 10 ng/ml TNFα, 100 μg/ml, p<0.005): 2 fold
- reduction in IL-6 levels (IL-6 [1]; Example 5, NL20 cells, 10 ng/ml TNFα, 300 μg/ml, p<0.005): 4 fold
- reduced levels of IL-6 (IL-6 [1]; [8]): 4 fold
- reduction in IL-8 levels (IL-8 [3]; [7]): ~5 fold
- levels of IL-8 decreased (IL-8 [3]; Example 5, NL20 cells, TNFα, 100 μg/ml): 50%
- levels of IL-8 decreased (IL-8 [3]; [9]): 60%
- reduced levels of IL-8 (IL-8 [3]; [8]): 2 fold
- decrease in IL-6 levels (IL-6 [4]; 100 μg/ml): 45%
- decrease in IL-6 levels (IL-6 [4]; 300 μg/ml): 40%
- levels of IL-8 decreased (IL-8 [5]; Example 5, 100 μg/ml): 30%
- levels of IL-8 decreased (IL-8 [5]; Example 5, 300 μg/ml): 20%
- cytotoxicity compared to moxifloxacin and ciprofloxacin (NL20 cells): less cytotoxic
- changes in cell viability in cytotoxicity assays (HBE135 cells): No significant changes
- cytotoxicity compared to moxifloxacin and ciprofloxacin (HBE135 cells; HBE135 cells, 48 hour incubation, higher concentrations): less cytotoxic
- decrease in IL-1I3 levels (IL-1β; 100 μg/ml): 40%
- decrease in IL-1I3 levels (IL-1β; 300 μg/ml): 70%
- level of IL-8 mRNA expression (IL-8 mRNA): no significant effect
- IL-6 levels lower than in the saline control (IL-6 [6]; p<0.05): more than 2 fold

Structure (SMILES): NC[C@H]1O[C@H](O[C@H]2[C@H](O)[C@@H](O[C@H]3O[C@H](CO)[C@@H](O)[C@H](N)[C@H]3O)[C@H](N)C[C@@H]2N)[C@H](N)C[C@@H]1O [tobramycin]
- production of IL-6 (IL-6 [1]; [10]): did not significantly affect
- IL-6 production (IL-6 [1]; [9]): increase
- increased IL-6 levels (IL-6 [1]; [11]): 50%
- production of IL-8 (IL-8 [3]; [10]): did not significantly affect
- effect on IL-8 (IL-8 [3]; [11]): no effect
- levels of IL-6 (IL-6 [4]; Example 5, LPS, 10 μg/ml, 30 μg/ml, or 100 μg/ml): did not affect
- increased levels of IL-6 (IL-6 [4]; Example 5, LPS, 300 μg/ml): 30%
- changes in cell viability in cytotoxicity assays (HBE135 cells): No significant changes
- mean MIP-2 levels (MIP-2): 502 pg/mL
- IL-6 levels compared to the saline control (IL-6 [6]): increase
